Results on twelve compounds are retold here after patent US7442713B2, “2-thio-substituted imidazole derivatives and their use in pharmaceutics” (Merckle GmbH, priority 2002, dated 2008).

The subject of one experiment is TNFα. The experiment is described as follows: In vitro test of cytokine release, LPS-stimulated human whole blood / PBMCs: TNFα. It is filed as cell-based. To be noted: LPS stimulation, ELISA; for IC50: Homo sapiens, PBMC, read-out: Cytokines IC50 TNF α. On the procedure:
(§1) The compounds or compositions according to the invention can be administered to mammals (man or animal) in a dose of from about 0.5 mg to 100 mg per kg of body weight per day. They may be administered in one individual dose or in a plurality of doses. The activity spectrum of the compounds as inhibitors of cytokine release was examined using the test systems below, as described by C. Donat and S. Laufer in Arch. Pharm. Pharm. Med. Chem. 333, Suppl. 1, 1-40, 2000.
(§2) In vitro Test with Human Whole Blood
(§3) The test substance is added to samples of human potassium-EDTA whole blood (of 400 μl each) and the samples are preincubated in a CO2 incubator (5% CO2; 95% moisture-saturated air) at 37° C. for 15 min. The samples are then stimulated with 1 μg/ml of LPS (E. coli 026:B6) at 37° C. in a CO2 incubator (5% CO2; 95% moisture-saturated air) for 4 hours. The reaction is stopped by placing the samples on ice, adding DPBS buffer and then centrifuging at 1000*g for 15 min. The amount of IL-1β and TNFα in the plasma supernatant is then determined by ELISA.
(§4) 1) The mononuclear cells (PBMCs) from human potassium-EDTA whole blood, diluted 1:3, are isolated by density gradient centrifugation (Histopaque®-1.077). The cells are washed twice with DPBS buffer, resuspended in macrophage SFM medium and adjusted to a cell count of 1*10^6 cells/ml.
(§5) The resulting PBMCs suspension (samples of in each case 390 μl) and the test substance are preincubated at 37° C. in a CO2 incubator (5% CO2; 95% moisture-saturated air) for 15 min. The samples are then stimulated with in each case […] of LPS (E. coli 026:B6) at 37° C. in a CO2 incubator (5% CO2; 95% moisture-saturated air) for 4 hours. The reaction is stopped by placing the samples on ice, adding DPBS buffer and then centrifuging at 15 880*g for 12 min. The amount of IL-1β and TNFα in the plasma supernatant is then determined by ELISA.

The subject of another experiment is IL-1β. The experiment in a line: In vitro test of cytokine release, LPS-stimulated human whole blood / PBMCs: IL-1β. To be noted: PBMC, LPS stimulation, ELISA, read-out: Cytokines IC50 IL-1β. The class given is cell-based. On the procedure: as §1, §2, §3, §4, §5
For another experiment, the target named is activated p38α (Homo sapiens, UniProt Q16539). The experiment is described as follows: Kinase assay (p38α, ATF2 substrate, ELISA read-out). It is filed as biochemical. The following applies: Table 1; for IC50: 100 μM ATP, 10 ng activated p38α, read-out: Kinase assay IC50. On the procedure:
At 37° C., microtiter plates were coated with 50 μl of ATF2 solution ([…]) for one hour. The plates were washed three times with water, and 50 μl of kinase mixture (50 mM tris-HCl, 10 mM MgCl2, 10 mM β-glycerol phosphate, 10 μg/ml BSA, 1 mM DTT, 100 μM ATP, 100 μM Na3VO4, 10 ng of activated p38α) with or without inhibitor were then added into the wells, and the plates were incubated at 37° C. for 1 hour. The plates were washed three times and then incubated at 37° C. with phosphorus-ATF-2 antibodies for one hour. Once more, the plates were washed three times, and goat-anti-rabbit IgG labeled with alkaline phosphatase was then added at 37° C. for one hour (to immobilize antibody-phosphorylated protein-substrate complex). After washing three times, the alkaline phosphatase-substrate solution (3 mM 4-NPP, 50 mM NaHCO3, 50 mM MgCl2, 100 μl/well) was added at 37° C. for 1.5 hours. The formation of 4-nitrophenolate was measured at 405 nm using a microtiter plate reader. The IC50 values were calculated.

Sequence of activated p38α (Q16539 whole entry): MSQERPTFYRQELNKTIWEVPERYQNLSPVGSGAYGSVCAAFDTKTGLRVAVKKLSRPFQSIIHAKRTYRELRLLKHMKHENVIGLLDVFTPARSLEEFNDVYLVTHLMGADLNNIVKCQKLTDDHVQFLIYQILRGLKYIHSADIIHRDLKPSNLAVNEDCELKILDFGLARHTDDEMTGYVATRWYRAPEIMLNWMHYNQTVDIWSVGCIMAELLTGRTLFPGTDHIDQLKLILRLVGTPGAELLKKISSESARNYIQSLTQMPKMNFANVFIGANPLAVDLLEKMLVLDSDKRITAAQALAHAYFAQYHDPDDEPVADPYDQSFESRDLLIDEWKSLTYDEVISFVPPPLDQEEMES

For the compound `OCC(O)CSc1nc(-c2ccc(F)cc2)c(-c2ccncc2)[nH]1` (stereo not drawn) [Example 21, 5-(4-Fluorophenyl)-4-(4-pyridinyl)imidazole-2-thio-1-propane-2,3-diol], the IC50 turned out to be 900 nM in the experiment on TNFα and 150 nM with IL-1β.
For `CCOC(=O)C(Sc1nc(-c2ccc(F)cc2)c(-c2ccncc2)[nH]1)C(=O)OCC` [Example 22, Diethyl 5-(4-fluorophenyl)-4-(4-pyridinyl)imidazole-2-thio-2-malonate], in that order: 360 nM and 540 nM.
Consider `O=C1OCCC1Sc1nc(-c2ccc(F)cc2)c(-c2ccncc2)[nH]1` (stereo not drawn) [Example 23, 5-(4-Fluorophenyl)-4-(4-pyridinyl)imidazole-2-thio-3-butyrolactone], for which the IC50 in the experiment on TNFα came to 3800 nM; with IL-1β, 190 nM.
For `O=C(O)C(CCO)Sc1nc(-c2ccc(F)cc2)c(-c2ccncc2)[nH]1` (stereo not drawn) [Example 24, 5-(4-Fluorophenyl)-4-(4-pyridinyl)imidazole-2-thio-2-butanoic acid-4-ol], in that order: 3800 nM and 140 nM.
As to `COC(=O)CCCCSc1nc(-c2ccc(F)cc2)c(-c2ccncc2)[nH]1` [Example 25, Methyl 5-(4-fluorophenyl)-4-(4-pyridinyl)imidazole-2-thio-5-valerate], in the experiment with TNFα, the “Cytokines TNF α % at 10^−5 mol/l” value was 28% at10^−5 mol/l. For the same compound, the IC50 in the experiment on IL-1β was found to be 1450 nM.
As for `COC(=O)CCCSc1nc(-c2ccc(F)cc2)c(-c2ccncc2)[nH]1` [Example 25a, Methyl 5-(4-fluorophenyl)-4-(4-pyridinyl)imidazole-2-thio-4-butyrate], the “Cytokines TNF α % at 10^−5 mol/l” value in the experiment on TNFα came out at 38% at10^−5 mol/l. For the same compound, the IC50 in the experiment with IL-1β came to 750 nM.
In the case of `COC(=O)/C=C/CSc1nc(-c2ccc(F)cc2)c(-c2ccncc2)[nH]1` [Example 25b, Methyl 5-(4-fluorophenyl)-4-(4-pyridinyl)imidazole-2-thio-4-crotonate], the IC50 is 1100 nM with TNFα and 650 nM in the experiment with IL-1β.
For `COC(=O)CSc1nc(-c2ccc(F)cc2)c(-c2ccncc2)[nH]1` [Example 25c, Methyl 5-(4-fluorophenyl)-4-(4-pyridinyl)imidazole-2-thio-2-acetate], the IC50 on activated p38α came out at 750 nM; in the experiment with TNFα it was 2100 nM; in the experiment with IL-1β, 320 nM.
For the compound `O=C1c2ccccc2C(=O)N1CCCSc1nc(-c2ccc(F)cc2)c(-c2ccncc2)[nH]1` [Example 25d, 5-(4-Fluorophenyl)-4-(4-pyridinyl)imidazole-2-thio-3-propyl-N-phthalimide], the values for the IC50 at activated p38α and in the experiment with IL-1β were 5500 nM and 920 nM, respectively.
For the compound `CCOC(=O)CSc1nc(-c2ccc(F)cc2)c(-c2ccncc2)[nH]1` [Example 25e, Ethyl 5-(4-fluorophenyl)-4-(4-pyridinyl)imidazole-2-thio-2-acetate], the IC50 was found to be 975 nM at activated p38α, 9500 nM in the experiment with TNFα and 700 nM in the experiment with IL-1β.
In the case of `CC(=O)CSc1nc(-c2ccc(F)cc2)c(-c2ccncc2)n1C` [Example 26, 1-[4-(4-Fluorophenyl)-1-methyl-5-pyridin-4-yl-1H-imidazol-2-ylsulfanyl]propan-2-one], on activated p38α, the “Kinase assay % at 10^−5 mol/l” value is recorded as 37.0% at10^−5 mol/l. Also, the IC50 in the experiment with IL-1β stood at 83 nM.
Regarding `CN(C)C(=O)CSc1nc(-c2ccc(F)cc2)c(-c2ccncc2)n1C` [Example 27, 1-[4-(4-Fluorophenyl)-1-methyl-5-pyridin-4-yl-1H-imidazol-2-ylsulfanyl]-N,N-dimethylacetamide], on activated p38α, the “Kinase assay % at 10^−5 mol/l” value amounted to 29.0% at10^−5 mol/l. Further, the IC50 in the experiment with TNFα is 3000 nM; in the experiment on IL-1β, 150 nM.
